Results reported in patent US20230002367A1, “BIFUNCTIONAL COMPOUNDS” (Hoffmann-La Roche Inc., priority 2019, published 2023).

Biological target: T1, SMARCA2 (Homo sapiens, UniProt P51531)
T1 construct: endogenous in cells
Experiment: SMARCA2 HiBiT degradation assay (cellular)
Assay type: cell-based
Settings: for Emax: A549, Emax = amount of residual protein remaining in the cell following compound treatment; for DC50: SMARCA2 HiBiT cells, luminescence readout, 11-point titration from 10 μM, 6 hours or 16 hours, read-out: HiBit A549 SMARCA2 IP

T1 sequence (P51531 whole entry): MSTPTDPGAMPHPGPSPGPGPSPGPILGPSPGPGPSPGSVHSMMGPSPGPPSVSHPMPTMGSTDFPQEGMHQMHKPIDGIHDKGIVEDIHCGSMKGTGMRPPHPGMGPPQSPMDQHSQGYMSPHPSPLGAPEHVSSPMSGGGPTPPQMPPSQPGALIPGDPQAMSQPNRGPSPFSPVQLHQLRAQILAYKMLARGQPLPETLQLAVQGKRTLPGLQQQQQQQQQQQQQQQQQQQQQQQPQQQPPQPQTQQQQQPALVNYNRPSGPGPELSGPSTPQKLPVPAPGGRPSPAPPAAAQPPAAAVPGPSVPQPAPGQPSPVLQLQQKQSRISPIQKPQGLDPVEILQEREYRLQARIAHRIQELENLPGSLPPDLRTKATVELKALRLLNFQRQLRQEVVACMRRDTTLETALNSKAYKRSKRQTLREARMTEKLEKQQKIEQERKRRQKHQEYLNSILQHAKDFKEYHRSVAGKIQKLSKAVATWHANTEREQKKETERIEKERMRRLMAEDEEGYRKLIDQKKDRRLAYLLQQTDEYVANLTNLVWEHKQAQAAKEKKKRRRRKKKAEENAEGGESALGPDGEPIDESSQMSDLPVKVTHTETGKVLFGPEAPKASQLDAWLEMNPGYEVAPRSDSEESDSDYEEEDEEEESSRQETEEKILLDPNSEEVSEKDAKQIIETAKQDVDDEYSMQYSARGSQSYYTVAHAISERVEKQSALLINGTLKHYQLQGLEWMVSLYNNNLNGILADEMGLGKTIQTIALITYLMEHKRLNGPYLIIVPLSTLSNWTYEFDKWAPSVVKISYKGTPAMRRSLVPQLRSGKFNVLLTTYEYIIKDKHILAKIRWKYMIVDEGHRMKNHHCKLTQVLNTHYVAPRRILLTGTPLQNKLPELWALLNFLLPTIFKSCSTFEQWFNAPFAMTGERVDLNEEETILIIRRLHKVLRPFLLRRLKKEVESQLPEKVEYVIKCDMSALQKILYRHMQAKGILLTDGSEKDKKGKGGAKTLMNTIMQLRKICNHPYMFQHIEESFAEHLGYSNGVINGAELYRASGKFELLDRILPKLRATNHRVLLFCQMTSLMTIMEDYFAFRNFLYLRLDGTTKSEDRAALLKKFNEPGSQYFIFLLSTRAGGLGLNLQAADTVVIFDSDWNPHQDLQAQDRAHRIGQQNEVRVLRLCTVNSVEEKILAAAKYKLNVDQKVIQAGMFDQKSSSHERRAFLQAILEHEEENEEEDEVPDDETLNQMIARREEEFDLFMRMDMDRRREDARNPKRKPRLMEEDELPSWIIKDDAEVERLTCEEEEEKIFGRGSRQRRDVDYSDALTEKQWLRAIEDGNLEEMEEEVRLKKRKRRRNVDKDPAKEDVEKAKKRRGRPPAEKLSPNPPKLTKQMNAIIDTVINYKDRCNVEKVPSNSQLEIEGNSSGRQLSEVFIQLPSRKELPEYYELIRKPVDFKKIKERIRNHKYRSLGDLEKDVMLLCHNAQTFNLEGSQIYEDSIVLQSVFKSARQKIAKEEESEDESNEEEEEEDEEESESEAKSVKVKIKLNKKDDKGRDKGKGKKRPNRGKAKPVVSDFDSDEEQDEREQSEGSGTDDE

Structure (SMILES): Cc1ncsc1-c1ccc([C@H](C)NC(=O)[C@@H]2C[C@@H](O)CN2C(=O)[C@@H](NC(=O)CCCCCCNC(=O)C(c2ccccc2)n2cc(-c3cc(-c4ccccc4O)nnc3N)cn2)C(C)(C)C)cc1 (mixture of isomers) [Example 75, rac-(2S,4R)-4-hydroxy-1-[rac-(2S)-2-[7-[[2-[4-[3-amino-6-(2-hydroxyphenyl)pyridazin-4-yl]pyrazol-1-yl]-2-phenyl-acetyl]amino]heptanoylamino]-3,3-dimethyl-butanoyl]-N-[rac-(1S)-1-[4-(4-methylthiazol-5-yl)phenyl]ethyl]pyrrolidine-2-carboxamide]
- Emax: 26%
- DC50: 777 nM

Structure (SMILES): Cc1ncsc1-c1ccc([C@H](C)NC(=O)[C@@H]2C[C@@H](O)CN2C(=O)[C@@H](NC(=O)CCCCCCCCC(=O)N2CCN(CCOc3ccc(N4CCCC(Oc5cc(-c6ccccc6O)nnc5N)C4)cc3)CC2)C(C)(C)C)cc1 (mixture of isomers) [Example 78, rac-(2S,4R)-4-hydroxy-1-[rac-(2S)-2-[[10-[4-[2-[4-[3-[3-amino-6-(2-hydroxyphenyl)pyridazin-4-yl]oxy-1-piperidyl]phenoxy]ethyl]piperazin-1-yl]-10-oxo-decanoyl]amino]-3,3-dimethyl-butanoyl]-N-[rac-(1S)-1-[4-(4-methylthiazol-5-yl)phenyl]ethyl]pyrrolidine-2-carboxamide]
- Emax: 20%
- DC50: 63 nM
